Experimental data published in patent publication US20070167502A1, “Association between a heterocyclic compound and an antioxidant agent” (priority 2004, published 2007).

Tested on: Male C57 Black 6 ob/ob mice
Assay: Change in body weight of ob/ob mice after 7 days of treatment
Assay type: in vivo
Conditions: intraperitoneal route once a day for 7 days, weight after 7 days of treatment
Description: Male C57 Black 6 ob/ob mice from 8 to 12 weeks old were used. […] After being weighed, the various compounds under test were injected by the intraperitoneal route once a day for 7 days. The compounds were injected in a solution of DMSO 5%/Solutol 15%/qsp H2O heated at 65° C. to ensure good dissolution. In addition, the solution was pre-heated before injection. The mice were weighed every day and the weight obtained after 7 days of treatment was recorded.

Compound	reduction in the weight gain
CCOC(Cc1ccc(OCCn2c(=O)sc3cc(C(=NO)c4ccccc4)ccc32)cc1)C(=O)O (centres unmarked) [2-ethoxy-3-{4-[2-(6-[(hydroxyimino)(phenyl)methyl]-2-oxo-1,3-benzothiazol-3(2H)-yl)ethoxy]phenyl}propanoic acid]	10%
COC1=C(OC)C(=O)C(C/C=C(\C)CC/C=C(\C)CC/C=C(\C)CC/C=C(\C)CC/C=C(\C)CC/C=C(\C)CC/C=C(\C)CC/C=C(\C)CC/C=C(\C)CCC=C(C)C)=C(C)C1=O [coenzyme Q10]	does not reduce the weight gain
